Data published in US6776984B1, “Induced regeneration and repair of damaged neurons and nerve axon myelin” (priority 1999, dated 2004).

Test system: B6SJL-TgN(SOD1-G93A)1 Gur strain mice
Test: Transgenic mouse model of familial amyotrophic lateral sclerosis (limb paralysis, survival)
Type: in vivo
Description: B6SJL-TgN(SOD1-G93A)1 Gur strain mice were obtained from. The Jackson Laboratory, Bar Harbor, Me. The transgene in these mice carries a high copy number of a mutant allele human SOD1 containing the Gly93 →Ala (G93A) substitution (often referred to as G1H). Mice progressively become paralyzed in one or more limbs, with paralysis due to loss of motor neurons from the spinal cord. The mice are generally described in Gurney M E, Pu H, Chiu A Y, Dal Canto M C, Polchow C Y, Alexander D D, Caliendo J, Hentati A, Kwon Y W, Deng H X, Chen W, Zhai P, Sufit R L, Siddique T: Motor neuron degeneration in mice that express a human Cu,Zn superoxide dismutase mutation. Science 264:1772-1775 (1994), and use of these mice as a model of familial amyotrophic lateral sclerosis is described in Chiu A Y, Zhai P, Dal Canto M C, Peters T M, Kwon Y W, Prattis S M, Gurney M E: Age-dependent penetrance of disease in a transgenic mouse model of familial amyotrophic lateral sclerosis. Mol Cell Neurosci 6:349-362 (1995).
At 105 days following birth, mouse A began manifesting objective symptoms of limb paralysis. A protocol as described in Table 1 was followed.
The thrombopoietin was obtained from Rand D. Systems, Inc. (Minneapolis, Minn.) as carrier-free recombinant thrombopoietin and the thryrotropin was obtained from Ferring Pharmaceuticals; both were administered by intraperitoneal (i.p.) injection. Synthroid®, a form of levothyroxine, was obtained from Flint Pharmaceuticals in 100 μg tablets.
A litter mate of mouse A, referred to as mouse B, was administered a protocol as described in Table 2, with administration commencing prior to the onset of any objective symptoms.
A B6SJL-TgN(SOD1-G93A)1Gur strain mouse as described in Example 1 was obtained, referred to as mouse C. Mouse C was administered a protocol as described in Table 3, with administration commencing prior to the onset of any objective symptoms.

[1] = mouse A, Table 1 protocol, thrombopoietin i.p. days 107, 110, 113

thrombopoietin
objective symptoms observed at day 111 (mouse A, symptomatic from day 105, after thrombopoietin 0.5 cc of 1 μg/cc i.p. on days 107 and 110): marked improvement | objective symptoms observed on day 124 (mouse A, Table 1 protocol): increasing front limb weakness | day of death (mouse A, Table 1 protocol (thrombopoietin, thyrotropin releasing hormone, Synthroid) started after symptom onset): 126 days | objective symptoms observed on day 122 (mouse A, Table 1 protocol, Synthroid in drinking water from day 121): marked improvement in front limbs | objective symptoms observed by day 118 (mouse A, Table 1 protocol, after thrombopoietin plus thyrotropin releasing hormone i.p. on day 117): decreased weakness | objective symptoms observed at day 113 [1]: shaking resumed | objective symptoms observed by day 115 [1]: marked hind limb weakness | objective symptoms observed on day 120 (mouse A, Table 1 protocol, thrombopoietin i.p. through day 119): increased mobility | day of death (mouse B, Table 2 protocol): 132 days | delay of onset of objective signs versus litter mate mouse A (mouse B, Table 2 protocol): 16 days | objective symptoms observed at day 129 (mouse B, Table 2 protocol): posterior limb paralysis | day of first objective signs (slight posterior weakness) (mouse B, Table 2 protocol, thrombopoietin i.p. from day 87, Synthroid in drinking water from day 105, started before symptoms): 121 days | day through which no objective signs of illness were observed (mouse C, Table 3 protocol, thrombopoietin i.p. days 80-88, Synthroid in drinking water from day 92, expected onset 91±14 days): > 110 days
